According to US20160120979A1, “METHOD OF APPLYING A COMPOSITION AND PHARMACEUTICAL COMPOSITION WITH A REGIMEN OF ADMINISTERING IT” (priority 2013, published 2016):
Converted amounts (≈) assume the structure as drawn. Read-outs that look alike come from different tables or passages of the source.

Key:
[1] = system: Acinetobacter; type: cell-based; details: remaining bacteria of experiment 12 proliferated and treated again
Method: (§1) 15′000′000 multi-resistant bacteriae (0.050 ml of a McFarland of 1) were put on 40 mm diameter petri dishes. The petri dishes comprised MH agar with or without antibiotic.
(§2) The LED power during 0.02 ms was measured to be 0.63 W on a Thorlabs power sensor with a surface area of 2.2×2.2 mm representing a power of 13 mW/cm^2.
(§3) After the irradiation treatment according to experiment 12, remaining bacteria were allowed to proliferate and then were subject to the treatment according to experiment 12 again in order to test for possible new resistances to the treatment. The values in the following table are designated as in experiment 12: […]

[2] = system: Staphylococcus aureus MU500; type: cell-based; details: remaining bacteria of experiment 12 proliferated and treated again
Method: as §1, §2, §3

[3] = system: MU50 multi-drug resistant bacterial cells; experiment: Experiment 2: moxifloxacin with UV-A on MU50 (CFU); type: cell-based, Staphylococcus aureus; details: for control: CFU without UVA: no UVA
From the text: This low concentration was chosen so as to detect threshold effects at the low edge of a just marginally effective concentration level of the antibiotic.

[4] = system: Acinetobacter; experiment: Experiment 12: replication on antibiotic agar after pulsed 400 nm irradiation; type: cell-based; details: 24 hours incubation; for C: Acinetobacter (no irradiation), replication: antibiotic 10 mg/l in MH agar; for D Acinetobacter (irradiation), replication: antibiotic 10 mg/l, 400 nm LED pulses 0.02 ms, 1 kHz, 10 minutes
Method: as §1
(§4) […]. The LED power during 0.02 ms was measured to be 0.63 W on a Thorlabs power sensor with a surface area of 2.2×2.2 mm representing a power of 13 mW/cm^2.

[5] = system: Pseudomonas aeruginosa; experiment: as above; type: cell-based; details: 24 hours incubation; for A: Pseudomonas aeruginosa (no irradiation), replication: antibiotic 10 mg/l in MH agar; for B: Pseudomonas aeruginosa (irradiation), replication: antibiotic 10 mg/l, 400 nm LED pulses 0.02 ms, 1 kHz, 10 minutes
Method: as §1, §4

[6] = system: Staphylococcus aureus MU500; experiment: as above; type: cell-based; details: 24 hours incubation; for E: Staphylococcus aureus MU500 (no irradiation), replication: antibiotic 10 mg/l in MH agar; for F: Staphylococcus aureus MU500 (irradiation), replication: antibiotic 10 mg/l, 400 nm LED pulses 0.02 ms, 1 kHz, 10 minutes
Method: as §1, §2

[7] = system: fibroblasts; type: cell-based
Method: In the second toxicity test fibroblasts were grown in RPMI cell culture medium medium with 10% fetal bovine serum and 1% of penicillin-streptomycin-fungizione (100×).
A: pulsed for 10 ms on and 90 ms of for 10 minutes or
B: pulsed for 5 ms on and 45 ms of for 10 minutes
C: no exposure to electromagnetic radiation
The result was obtained by counting viable cells for determination of the percentage of viable cells, with 100% viability being equal to the number of cells delivered to each well.

[8] = system: MU50 multidrug-resistant Staphylococcus aureus strain (MRSA); experiment: Minimum inhibitory concentration (MIC) on MU50; type: cell-based; details: Staphylococcus aureus, MRSA; overnight incubation; read-out: MIC
From the text: For some of the experimental tests MU50 bacteria were used. MU50 is a multidrug-resistant Staphylococcus aureus strain (MRSA). MRSA are bacteria which have naturally evolved under antibiotic selection pressure and which are known to be resistant to antibiotics including penicillins (methicillin, dicloxacillin, nafcillin, oxacillin, etc.) and cephalosporins. MU50 is additionally resistant to macrolides, quinolones and aminoglycosides.
The minimum inhibitory concentration (MIC), which inhibits the visible growth of a microorganism after an overnight incubation was determined for the following antibiotics: […]

[9] = system: Mice fibroblast; type: cell-based; details: Tobramycin 75, Tetracycline 10, Ciprofloxacin 1 μg/ml; 30 min pre-incubation; no treatment, CXL 18 mW/cm2 5 min or laser 405 nm 1 min; 24 hours
Method: The number of colony forming units (CFU) was determined after 24 hours of incubation at 37° C.

[10] = system: chemotherapy resistant stage 4 (metastatic) small cells lung carcinoma cells; experiment: Experiment 10: metabolic activity (CellTiter-Glo) of resistant neoplastic cells after photo-activated oncological drugs; details: sample 4, Topotecan 0.07 μg/ml
[11] = system: PA01 Pseudamonas aeruginosa MultiR genetically modified bacteria; experiment: Experiment 9: growth of PA01 after pulsed 400 nm photo-activation, shorter pulses; type: cell-based; details: antibiotic concentration per the 13th table
Method: (§5) In Experiments 7 to 9 the effect of some exemplary photo-activated antibiotics is tested on two different multi resistant bacterial strains:
(§6) In Experiment 8 and 9 PA01 Pseudamonas aeruginosa MultiR genetically modified bacteria were tested. This PA01 strain is genetically modified with a quinolone pump and conferring resistance to antibiotics of the quinolone group of antibiotics.
A→Pulse ON 3 ms energy 0.03 J, OFF 27 ms during 10 minutes
G→Pulse ON 1 ms energy 0.01 J, OFF 9 ms during 10 minutes
(§7) The following experimental procedure are the same for experiments 7, 8 and 9: The bacterial cells were grown in Mueller Hinton Broth in the presence of an antibiotic at a concentration according to the table below until they reached turbidity of 1 according to the McFarland Standard (=3×10^8 bacteria/ml):
(§8) For each antibiotic two patterns of pulsed exposure for photo-activation were applied and a control without exposure to radiation. For example in experiment 7 and 8, pulse ON 10 ms energy 0.1 J, OFF 90 ms during 10 minutes and pulse ON 5 ms energy 0.05 J, OFF 45 ms i.e. in both treatments a 10% ON and a 90% OFF pattern and both for a duration of 10 minutes.
(§9) Incubation for 2 to up 36 hours at 37° C. until time=t2
(§10) At time=t2 one of the antibiotics is added to obtain the same concentration of antibiotic as during the original growth phase prior to time t1=0 as listed in the table above.
(§11) Incubation for further 2 to 4 hours at 37° C. in the presence of antibiotic until time=t3.
(§12) The absorbance value correlates to the colloidal effect and the number of bacteria in the sample.
(§13) These tables below list for each bacterial sample the difference in absorption values representing the difference in the number of bacteria present in each sample by subtracting the absorption values at time t4, which is the last measurement of the growth curve presented in FIGS. 3 to 5 from the last absorption value before the treatment with light at time t3. The values of A and G represent the effect of the treatment of the bacterial samples with two different light patterns for activation of the antibiotic as described above. The values of D correspond to the control samples without photo-activation of the antibiotic: […]

[12] = system: PA01 Pseudamonas aeruginosa MultiR genetically modified bacteria; experiment: Experiment 8: growth of PA01 after pulsed 400 nm photo-activation of antibiotics; type: cell-based; details: antibiotic concentration per the 12th table
Method: as §5, §6
(§14) G→Pulse ON 5 ms energy 0.05 J, OFF 45 ms during 10 minutes
as §7, §8, §9, §10, §11, §12, §13

[13] = system: MU 50 multi-resistant bacteria; experiment: Experiment 7: growth of MU50 after pulsed 400 nm photo-activation of antibiotics; type: cell-based, Staphylococcus aureus
Method: as §5
In Experiment 7 MU 50 multi-resistant bacteria as described above for Experiments 1 to 3 were tested.
as §14, §7, §8, §9, §10, §11, §12, §13

[14] = sample 1A: moxifloxacin during UV 5 μg/ml, after UV 7.5 μg/ml for 2 hours, UV-A 365 nm 10 mW/cm^2 10 min
[15] = sample 1B: moxifloxacin during UV 5 μg/ml, after UV 2.5 μg/ml (NaCl added), UV-A 365 nm 10 mW/cm^2 10 min

SMILES	D Acinetobacter (irradiation), replication, second treatment [1]	C: Acinetobacter (no irradiation), replication, second treatment [1]	F: Staphylococcus aureus MU500 (irradiation), replication, second treatment [2]	E: Staphylococcus aureus MU500 (no irradiation), replication, second treatment [2]	C: Acinetobacter (no irradiation), replication [4]	D Acinetobacter (irradiation), replication [4]	A: Pseudomonas aeruginosa (no irradiation), replication [5]	B: Pseudomonas aeruginosa (irradiation), replication [5]	E: Staphylococcus aureus MU500 (no irradiation), replication [6]	F: Staphylococcus aureus MU500 (irradiation), replication [6]	also measured
COc1c(N2C[C@@H]3CCCN[C@@H]3C2)c(F)cc2c(=O)c(C(=O)O)cn(C3CC3)c12 [Moxifloxacin]	NR (No replication)	R (Bacteria can replicate after the treatment)	PR (Bacteria can replicate partially)	R (Bacteria can replicate after the treatment)	R (Bacteria can replicate after the treatment)	NR (No replication)	R (Bacteria can replicate after the treatment)	NR (No replication)	R (Bacteria can replicate after the treatment)	NR (No replication)	control: CFU without UVA ([3]; sample 1A: moxifloxacin during 5 μg/ml, after 7.5 μg/ml for 2 hours): 516 CFU; CFU with UVA [3, 14]: 3 CFU; CFU with UVA, percentage in brackets (survival rate) [3, 14]: 0%; control: CFU without UVA ([3]; sample 1B: moxifloxacin during 5 μg/ml, after 2.5 μg/ml (NaCl added)): 400 CFU; CFU with UVA [3, 15]: 119 CFU; CFU with UVA, percentage in brackets [3, 15]: 30%; Percentage of viable cells ([7]; C: no exposure to electromagnetic radiation, antibiotic 3-10 μg/ml final): 85%
CN(C)[C@@H]1C(O)=C(C(N)=O)C(=O)[C@@]2(O)C(O)=C3C(=O)c4c(O)cccc4[C@@](C)(O)C3CC12 (stereo partly shown) [Tetracycline]	NR (No replication)	R (Bacteria can replicate after the treatment)	NR (No replication)	R (Bacteria can replicate after the treatment)	R (Bacteria can replicate after the treatment)	NR (No replication)	R (Bacteria can replicate after the treatment)	NR (No replication)	R (Bacteria can replicate after the treatment)	NR (No replication)	MIC [8]: 32 µg/mL (≈ 72 µM); Percentage of viable cells Normalized for the dead cell in NaCl group including light ([7]; A: 405 nm pulsed 10 ms on, 90 ms off for 10 minutes): 52%; Percentage of viable cells Normalized for the dead cell in NaCl group including light ([7]; B: 405 nm pulsed 5 ms on, 45 ms off for 10 minutes): 57%; toxicity in term of necrosis and apoptosis [9]: No toxicity in term of necrosis and apoptosis
CC[C@@]1(O)C(=O)OCc2c1cc1n(c2=O)Cc2cc3c(CN(C)C)c(O)ccc3nc2-1 [Topotecan]	–	–	–	–	–	–	–	–	–	–	cell metabolic activity (luminescence, ATP) after normalization with the controls ([10]; A: pulse ON 10 ms, 0.1 J, OFF 90 ms, 10 minutes): 7%; cell metabolic activity (luminescence, ATP) after normalization with the controls ([10]; B: pulse ON 10 ms, 0.01-0.001 J, OFF 90 ms, 10 minutes): 52%; cell metabolic activity (luminescence, ATP) after normalization with the controls ([10]; C: control no pulse): 100%; cell metabolic activity (luminescence, ATP) after normalization with the controls ([10]; D: control no pulse): 100%; cell metabolic activity (luminescence, ATP) after normalization with the controls ([10]; E: pulse ON 10 ms, 0.01-0.001 J, OFF 90 ms, 5 minutes): 47%; cell metabolic activity (luminescence, ATP) after normalization with the controls ([10]; F: pulse ON 10 ms, 0.1 J, OFF 90 ms, 5 minutes): 5%
CC[C@H]1OC(=O)[C@H](C)[C@@H](O[C@H]2C[C@@](C)(OC)[C@@H](O)[C@H](C)O2)[C@H](C)[C@@H](O[C@@H]2O[C@H](C)C[C@H](N(C)C)[C@H]2O)[C@](C)(OC)C[C@@H](C)C(=O)[C@H](C)[C@@H](O)[C@]1(C)O [Clarithromycin]	–	–	–	–	R (Bacteria can replicate after the treatment)	R (Bacteria can replicate after the treatment)	R (Bacteria can replicate after the treatment)	PR (Bacteria can replicate partially)	R (Bacteria can replicate after the treatment)	R (Bacteria can replicate after the treatment)	difference in absorption values (595-600 nm) between t4 and t3 ([11]; A: 400 nm LED pulse ON 3 ms energy 0.03 J, OFF 27 ms during 10 minutes): −0.1708; difference in absorption values (595-600 nm) between t4 and t3 ([11]; D: control no pulse): −0.0024; difference in absorption values (595-600 nm) between t4 and t3 ([11]; G: 400 nm LED pulse ON 1 ms energy 0.01 J, OFF 9 ms during 10 minutes): −0.0994; difference in absorption values (595-600 nm) between t4 and t3 ([12]; A: 400 nm LED pulse ON 10 ms energy 0.1 J, OFF 90 ms during 10 minutes): 0.0106; difference in absorption values (595-600 nm) between t4 and t3 ([12]; D: control no pulse): 0.1041; difference in absorption values (595-600 nm) between t4 and t3 ([12]; G: 400 nm LED pulse ON 5 ms energy 0.05 J, OFF 45 ms during 10 minutes): −0.0396; difference in absorption values (595-600 nm) between t4 and t3 [13]: 0.0956; difference in absorption values (595-600 nm) between t4 and t3 ([13]; 10 min): −0.1383; difference in absorption values (595-600 nm) between t4 and t3 ([13]; 10 h): −0.1249
